This passage reports IC50 and inhibition results from patent publication US20030236257A1, “Polycyclic aryl and heteroaryl substituted 4-pyridones useful for selective inhibition of the cogulation cascade” (priority 2003, published 2003).

Broadly, the IC50 is the midpoint of a concentration-inhibition curve. The inhibition is how much of the control response was suppressed.

Type in all cases: biochemical
The target of one assay is human thrombin (Homo sapiens, UniProt P00734). The assay is described as follows: Thrombin Assay. How it is done: (§1) 0.28 nM human thrombin and 0.06 mM H-D-Phenylalanyl-L-pipecolyl-L, arginine-nitroaniline, dihydrochloride are added to a 96-well assay plate containing either inhibitor or buffer (50 mM Tris-HCl, pH 8.0, 100 mM NaCl, 0.1% BSA). The reaction, in a final volume of 100 ul is measured immediately at 405 nm to determine background absorbance. The plate is incubated at room temperature for 60 min, at which time the rate of hydrolysis of the substrate is measured by monitoring the reaction at 405 nm for the release of pnitroaniline. Percent inhibition of thrombin activity is calculated from OD405nm value from the experimental and control sample.
(§2) Recombinant soluble TF, consisting of amino acids 1-219 of the mature protein sequence was expressed in E. coli and purified using a Mono Q Sepharose FPLC. Recombinant human […] was purchased from American Diagnostica, Greenwich Cr and chromogenic substrate N-Methylsulfonyl-D-phe-gly-arg-pnitroaniline was prepared by American Peptide Company, Inc., Sunnyvale, Calif. Factor Xa was obtained from Enzyme Research Laboratories, South Bend IN, thrombin from Calbiochem, La Jolla, Calif., and trypsin and L-BAPNA from Sigma, St. Louis Mo. The chromogenic substrates S-2765 and S-2238 were purchased from Chromogenix, Sweden.

Assay [1] addresses T1, trypsin, type IX from porcine pancreas (Sus scrofa, UniProt P00761).
T1 construct: purchased Sigma, St. Louis Mo; host or cells: porcine pancreas
The assay is described as follows: Trypsin Assay. The following applies: chromogenic substrate L-BAPNA, 60 min at room temperature, OD 405 nm; read-out: IC50 or % Inhibition Trpysin II (30 µM): IC50. The procedure:
5 ug/ml trypsin, type IX from porcine pancreas and 0.375 mM N-α-Benzoyl-L-arginine-p-nitroanilide (LBAPNA) are added to a 96-well assay plate containing either inhibitor or buffer (50 mM Tris-HCl, pH 8.0, 100 mM NaCl, 0.1% BSA). The reactions, in a final volume of 100 ul are measured immediately at 405 nm to determine background absorbance. The plate is incubated at room temperature for 60 min, at which time the rate of hydrolysis of the substrate is measured by monitoring the reaction at 405 nm for the release of p-nitroaniline. Percent inhibition of trypsin activity is calculated from OD405nm value from the experimental and control sample.
as §2

Assay [2] deals with T2, TF-VIIa (recombinant soluble tissue factor and recombinant human factor VIIa) (Homo sapiens, UniProt P08709).
T2 construct: purchased American Diagnostica, Greenwich; host or cells: soluble TF made in house in E. coli
T2 sequence (P08709 213-466 limits assumed): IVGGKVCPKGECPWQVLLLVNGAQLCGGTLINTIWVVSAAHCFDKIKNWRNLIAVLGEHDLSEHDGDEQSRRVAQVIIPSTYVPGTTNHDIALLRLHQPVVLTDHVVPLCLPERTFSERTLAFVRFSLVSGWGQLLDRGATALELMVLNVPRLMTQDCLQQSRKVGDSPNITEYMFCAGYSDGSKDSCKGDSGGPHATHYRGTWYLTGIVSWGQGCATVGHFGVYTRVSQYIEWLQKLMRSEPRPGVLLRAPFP
T2 sequence (P08709 61-212 partner limits assumed): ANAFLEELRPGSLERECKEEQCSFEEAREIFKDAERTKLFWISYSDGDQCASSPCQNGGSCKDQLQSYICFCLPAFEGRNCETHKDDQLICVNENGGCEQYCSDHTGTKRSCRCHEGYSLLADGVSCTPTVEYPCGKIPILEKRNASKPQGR
T2 sequence (P13726 33-251 partner limits assumed): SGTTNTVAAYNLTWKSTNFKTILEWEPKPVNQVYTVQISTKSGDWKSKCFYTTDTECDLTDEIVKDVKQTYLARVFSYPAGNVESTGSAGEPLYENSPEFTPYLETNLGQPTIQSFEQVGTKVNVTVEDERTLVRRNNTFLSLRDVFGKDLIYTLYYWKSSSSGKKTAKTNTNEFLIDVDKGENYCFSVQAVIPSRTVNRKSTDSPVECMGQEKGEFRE
The experiment in a line: TF-VIIa Assay. To be noted: chromogenic substrate, 60 min at room temperature, OD 405 nm; read-out: IC50 or % Inhibition TF-VIIa (30 µM): IC50. How it is done: In this assay 100 nM recombinant soluble tissue factor and 2 nM recombinant human factor VIIa are added to a 96-well assay plate containing 0.4 mM of the substrate, N-Methylsulfonyl-D-phe-gly-arg-p-nitroaniline and either inhibitor or buffer (5 mM CaCl2, 50 mM Tris-HCl, pH 8.0, 100 mM NaCl, 0.1% BSA). The reaction, in a final volume of 100 ul is measured immediately at 405 nm to determine background absorbance. The plate is incubated at room temperature for 60 min, at which time the rate of hydrolysis of the substrate is measured by monitoring the reaction at 405 nm for the release of p-nitroaniline. Percent inhibition of TF-VIIa activity is calculated from OD405nm value from the experimental and control sample.
as §2

For the next assay, the target named is T3, human factor Xa (Homo sapiens, UniProt P00742).
T3 construct: purchased Enzyme Research Laboratories, South Bend IN
T3 sequence (P00742 235-488 limits assumed): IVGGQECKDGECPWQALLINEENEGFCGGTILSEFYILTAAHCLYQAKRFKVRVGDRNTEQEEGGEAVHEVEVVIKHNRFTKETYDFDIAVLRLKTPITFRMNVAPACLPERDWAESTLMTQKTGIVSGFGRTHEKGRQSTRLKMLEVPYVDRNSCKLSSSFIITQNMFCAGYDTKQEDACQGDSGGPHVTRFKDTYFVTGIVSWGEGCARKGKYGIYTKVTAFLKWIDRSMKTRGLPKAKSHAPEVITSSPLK
T3 sequence (P00742 41-179 partner limits assumed): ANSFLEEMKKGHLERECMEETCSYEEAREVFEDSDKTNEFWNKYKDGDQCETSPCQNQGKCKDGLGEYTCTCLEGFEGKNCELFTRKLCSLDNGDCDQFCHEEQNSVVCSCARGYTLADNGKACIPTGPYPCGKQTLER
The assay is described as follows: Xa Assay. The following applies: read-out: IC50 or % Inhibition Factor Xa (30 µM): % inhibition. The procedure: as §1, with “0.3 nM” for “0.28 nM”, “human factor Xa” for “human thrombin”, “and 0.15” for “and 0.06”, “mM N-a-Benzyloxycarbonyl-D-arginyl-L-glycyl-L-arginne-nitroaniline-dihydrochloride (S-2765)” for “mM H-D-Phenylalanyl-L-pipecolyl-L, arginine-nitroaniline, dihydrochloride”, “of p-nitroaniline.” for “of pnitroaniline.”, “of Xa” for “of thrombin”
as §2

T1 sequence (P00761 9-231): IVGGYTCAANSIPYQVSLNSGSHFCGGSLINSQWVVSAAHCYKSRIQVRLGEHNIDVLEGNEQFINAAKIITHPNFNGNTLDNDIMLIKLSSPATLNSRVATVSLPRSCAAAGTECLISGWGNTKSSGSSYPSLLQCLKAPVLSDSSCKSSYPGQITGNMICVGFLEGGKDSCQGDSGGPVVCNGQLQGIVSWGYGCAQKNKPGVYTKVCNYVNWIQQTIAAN

In the case of `CC(C)Nc1cn(C)c(-c2cccc(N)c2)c(CC(=O)NCc2ccc(C(=N)N)cc2)c1=O` [Example 1], the IC50 on human thrombin (chromogenic substrate, 60 min at room temperature, OD 405 nm, read-out: IC50 or % Inhibition Thrombin (30 µM): IC50) was found to be 100000 nM; in assay [1] it was 33 nM; in assay [2], 280 nM. Moreover, the inhibition at 100 µM at human factor Xa was 32%.
With `CCCn1cc(NC(C)C)c(=O)c(CC(=O)NCc2ccc(C(=N)N)cc2)c1-c1cccc(N)c1` [Example 2], the inhibition at 100 µM at human thrombin (at 100 μM, read-out: IC50 or % Inhibition Thrombin (30 µM): % inhibition) stood at 45%; at human factor Xa, 34%. Besides, the IC50 in assay [1] came to 151 nM; in assay [2] it was 560 nM.
